For this assay, the system named is Salmonella. Kind of assay: Antimicrobial effect (MIC, MBC) on Salmonella. Format: cell-based. The settings on record: compared with the other antimicrobial agents tested.

Protocol: The antimicrobial effects of these samples were evaluated by the determination of Minimum Inhibitory Concentration (MIC) and Minimum Bactericidal Concentration (MBC).
In this connection, bacterial strains used herein were those obtained from enteric canal of broiler chicken.

On to `CC1(C)S[C@@H]2[C@H](NC(=O)[C@H](N)c3ccccc3)C(=O)N2[C@H]1C(=O)O` [Ampicillin], for which the “antibacterial effect against Salmonella, in words” value is given as “quite weak antibacterial effect”.

These data come from patent publication US20090283050A1, “FEED COMPOSITION AND METHOD FOR BREEDING ANIMALS” (KENKO CORPORATION, priority 2005, published 2009).
